Measured values from ChEMBL document CHEMBL3885861, “Open TG-GATES”.

Species on record: Rattus norvegicus
Experiment: Open TG-GATES - Regimen: Daily Repeat
Assay type: toxicity, organism-based, Sprague-Dawley
Design: regimen Daily Repeat, gender Male, age 6 weeks
Conditions: in vivo, po, route gavage; for Eos / Fbg / Hb / Ht / Lym / MCH / MCHC / MCV / Mono / PT / Plat / RBC / Ret / WBC / APTT / Bas: tissue Blood; for KIDNEY_L / KIDNEY_R / KIDNEY_TOTAL: tissue Kidney; for ALP / ALT / AST / BUN / CRE / DBIL / GLC / IP / K / LDH / Na / PL / RALB / TBIL / TC / TG / TP / gamma-GTP / Ca: tissue Plasma
[1] = 60 mg/kg, 72 h, dose level Middle, time 3 day
[2] = 60 mg/kg, […], dose level Middle, time 7 day
[3] = 60 mg/kg, […], dose level Middle, time 14 day
[4] = 60 mg/kg, […], dose level Middle, time 28 day
[5] = 200 mg/kg, 72 h, dose level High, time 3 day
[6] = 200 mg/kg, […], dose level High, time 7 day
[7] = 200 mg/kg, […], dose level High, time 14 day
[8] = 200 mg/kg, […], dose level High, time 28 day

Q: What does the source list for `CC(C)Cc1ccc(C(C)C(=O)O)cc1` (stereo not given) [IBUPROFEN]?
A: Eos [1]: 0.8%; Fbg [1]: 340.8 mg/dL; Hb [1]: 13.2 g/dL; Ht [1]: 39%; Lym [1]: 73.8%; MCH [1]: 21 pg; MCHC [1]: 33.9%; MCV [1]: 61.9 fL; Mono [1]: 2.6%; PT [1]: 16 s; Plat [1]: 115.2 x10_4/uL; RBC [1]: 629.8 x10_4/ul; Ret [1]: 6.7%; WBC [1]: 115.1 x10_2/uL; KIDNEY_L [1]: 0.9 g; KIDNEY_R [1]: 1 g; KIDNEY_TOTAL [1]: 1.9 g; ALP [1]: 1603.6 IU/L; ALT [1]: 45 IU/L; AST [1]: 80.4 IU/L; BUN [1]: 17.8 mg/dL; CRE [1]: 0.2 mg/dL; DBIL [1]: 0 mg/dL; GLC [1]: 184.6 mg/dL; IP [1]: 7.2 mg/dL; K [1]: 4.4 meq/L; LDH [1]: 237 IU/L; Na [1]: 141.4 meq/L; PL [1]: 138.4 mg/dL; RALB [1]: 2.9 g/dL; TBIL [1]: 0.002 mg/dL; TC [1]: 73.4 mg/dL; TG [1]: 130.8 mg/dL; TP [1]: 5.4 g/dL; gamma-GTP [1]: 1.4 IU/L; TERMINAL_BW [2]: 253.3 g; TERMINAL_BW [3]: 297.5 g; TERMINAL_BW [4]: 379.8 g; APTT [2]: 20.6 s; Bas [2]: 0%; Eos [2]: 1%; Fbg [2]: 313.2 mg/dL; Hb [2]: 12.9 g/dL; Ht [2]: 37.4%; Lym [2]: 68.6%; MCH [2]: 21.3 pg; MCHC [2]: 34.4%; MCV [2]: 62 fL; Mono [2]: 3%; PT [2]: 15.8 s; Plat [2]: 132.1 x10_4/uL; RBC [2]: 605 x10_4/ul; Ret [2]: 8.2%; WBC [2]: 133.5 x10_2/uL; APTT [3]: 23.6 s; Bas [3]: 0%; Eos [3]: 1%; Fbg [3]: 326.2 mg/dL; Ht [3]: 41%; Lym [3]: 75.8%; MCHC [3]: 33.9%; MCV [3]: 61.4 fL; Mono [3]: 2.8%; PT [3]: 16.1 s; RBC [3]: 670.4 x10_4/ul; Ret [3]: 5.7%; WBC [3]: 126.7 x10_2/uL; APTT [4]: 24.2 s; Bas [4]: 0%; Eos [4]: 1.8%; Fbg [4]: 333 mg/dL; Hb [4]: 14.8 g/dL; Ht [4]: 43.5%; Lym [4]: 75.2%; MCH [4]: 19 pg; MCHC [4]: 34%; MCV [4]: 56 fL; Mono [4]: 1.8%; Plat [4]: 102 x10_4/uL; RBC [4]: 777.2 x10_4/ul; Ret [4]: 2.8%; WBC [4]: 93.9 x10_2/uL; KIDNEY_L [2]: 1.1 g; KIDNEY_R [2]: 1.1 g; KIDNEY_TOTAL [2]: 2.1 g; KIDNEY_L [3]: 1.2 g; KIDNEY_R [3]: 1.2 g; KIDNEY_TOTAL [3]: 2.4 g; KIDNEY_L [4]: 1.3 g; KIDNEY_R [4]: 1.4 g; KIDNEY_TOTAL [4]: 2.7 g; ALP [2]: 1376 IU/L; ALT [2]: 44.2 IU/L; AST [2]: 78 IU/L; BUN [2]: 18.6 mg/dL; CRE [2]: 0.2 mg/dL; DBIL [2]: 0 mg/dL; GLC [2]: 188.4 mg/dL; IP [2]: 7.3 mg/dL; K [2]: 4 meq/L; LDH [2]: 187.6 IU/L; Na [2]: 139.2 meq/L; PL [2]: 154.4 mg/dL; RALB [2]: 3 g/dL; TBIL [2]: 0.004 mg/dL; TC [2]: 75.6 mg/dL; TG [2]: 136.4 mg/dL; TP [2]: 5.4 g/dL; gamma-GTP [2]: 2.4 IU/L; ALP [3]: 1198.6 IU/L; ALT [3]: 41.2 IU/L; AST [3]: 69.2 IU/L; CRE [3]: 0.2 mg/dL; DBIL [3]: 0 mg/dL; GLC [3]: 189.4 mg/dL; IP [3]: 8.1 mg/dL; K [3]: 4.1 meq/L; LDH [3]: 147.6 IU/L; Na [3]: 141 meq/L; PL [3]: 154 mg/dL; RALB [3]: 3 g/dL; TBIL [3]: 0.004 mg/dL; TC [3]: 76.6 mg/dL; TG [3]: 139 mg/dL; TP [3]: 5.6 g/dL; gamma-GTP [3]: 2.2 IU/L; ALP [4]: 1187.4 IU/L; ALT [4]: 40.8 IU/L; AST [4]: 67.8 IU/L; BUN [4]: 20 mg/dL; CRE [4]: 0.2 mg/dL; Ca [4]: 10.4 mg/dL; DBIL [4]: 0 mg/dL; GLC [4]: 186.2 mg/dL; IP [4]: 6.7 mg/dL; K [4]: 3.9 meq/L; LDH [4]: 150.6 IU/L; Na [4]: 142.4 meq/L; PL [4]: 147 mg/dL; RALB [4]: 3.2 g/dL; TBIL [4]: 0.002 mg/dL; TC [4]: 71.8 mg/dL; TG [4]: 139 mg/dL; TP [4]: 6 g/dL; gamma-GTP [4]: 2.6 IU/L; TERMINAL_BW [5]: 206.3 g; APTT [5]: 19.6 s; Bas [5]: 0%; Eos [5]: 1%; Fbg [5]: 465.4 mg/dL; Hb [5]: 9.9 g/dL; Ht [5]: 29.9%; Lym [5]: 66.2%; MCH [5]: 21.1 pg; MCHC [5]: 33.2%; MCV [5]: 63.7 fL; Mono [5]: 4.8%; PT [5]: 15.1 s; Plat [5]: 111.5 x10_4/uL; RBC [5]: 472.2 x10_4/ul; Ret [5]: 11%; WBC [5]: 175.1 x10_2/uL; KIDNEY_L [5]: 0.9 g; KIDNEY_R [5]: 1 g; KIDNEY_TOTAL [5]: 1.9 g; ALP [5]: 841.6 IU/L; ALT [5]: 34.4 IU/L; AST [5]: 59.4 IU/L; BUN [5]: 16.2 mg/dL; CRE [5]: 0.1 mg/dL; DBIL [5]: 0 mg/dL; GLC [5]: 171 mg/dL; IP [5]: 7.9 mg/dL; K [5]: 4.5 meq/L; LDH [5]: 122.6 IU/L; Na [5]: 140.8 meq/L; PL [5]: 147.2 mg/dL; RALB [5]: 2.4 g/dL; TBIL [5]: 0.004 mg/dL; TC [5]: 86 mg/dL; TG [5]: 116.2 mg/dL; TP [5]: 4.8 g/dL; gamma-GTP [5]: 1.6 IU/L; TERMINAL_BW [6]: 228.5 g; TERMINAL_BW [7]: 217 g; TERMINAL_BW [8]: 319 g; APTT [6]: 20.3 s; Bas [6]: 0%; Eos [6]: 1.4%; Fbg [6]: 360.2 mg/dL; Hb [6]: 9.5 g/dL; Ht [6]: 29.8%; Lym [6]: 65.6%; MCH [6]: 21.1 pg; MCV [6]: 66.4 fL; Mono [6]: 3.6%; PT [6]: 16.4 s; Plat [6]: 198 x10_4/uL; RBC [6]: 450 x10_4/ul; Ret [6]: 20.9%; WBC [6]: 213.7 x10_2/uL; APTT [7]: 18.9 s; Bas [7]: 0%; Eos [7]: 1.2%; Fbg [7]: 455.2 mg/dL; Hb [7]: 6.4 g/dL; Ht [7]: 23.2%; Lym [7]: 56.6%; MCH [7]: 17.8 pg; MCHC [7]: 27.3%; MCV [7]: 65.3 fL; Mono [7]: 5%; PT [7]: 16.5 s; Plat [7]: 274.3 x10_4/uL; RBC [7]: 354.6 x10_4/ul; Ret [7]: 36.9%; WBC [7]: 225.9 x10_2/uL; APTT [8]: 19.1 s; Bas [8]: 0%; Eos [8]: 2.2%; Fbg [8]: 434.8 mg/dL; Hb [8]: 7.6 g/dL; Lym [8]: 48.8%; MCH [8]: 17.5 pg; MCHC [8]: 28%; MCV [8]: 62.7 fL; Mono [8]: 3%; PT [8]: 16.6 s; Plat [8]: 195.7 x10_4/uL; RBC [8]: 433.5 x10_4/ul; WBC [8]: 190.5 x10_2/uL; KIDNEY_L [6]: 1 g; KIDNEY_R [6]: 1 g; KIDNEY_TOTAL [6]: 2.1 g; KIDNEY_L [7]: 1 g; KIDNEY_R [7]: 1.1 g; KIDNEY_TOTAL [7]: 2.1 g; KIDNEY_L [8]: 1.4 g; KIDNEY_R [8]: 1.4 g; KIDNEY_TOTAL [8]: 2.8 g; ALP [6]: 793 IU/L; AST [6]: 63 IU/L; BUN [6]: 18.6 mg/dL; CRE [6]: 0.2 mg/dL; DBIL [6]: 0 mg/dL; GLC [6]: 179.6 mg/dL; IP [6]: 7.8 mg/dL; K [6]: 4.3 meq/L; LDH [6]: 145 IU/L; Na [6]: 140.4 meq/L; PL [6]: 161.6 mg/dL; RALB [6]: 2.7 g/dL; TBIL [6]: 0.002 mg/dL; TC [6]: 84 mg/dL; TG [6]: 148.6 mg/dL; TP [6]: 5.1 g/dL; gamma-GTP [6]: 2 IU/L; ALP [7]: 502.2 IU/L; ALT [7]: 25.6 IU/L; AST [7]: 55.2 IU/L; BUN [7]: 15.4 mg/dL; CRE [7]: 0.2 mg/dL; Ca [7]: 10.2 mg/dL; DBIL [7]: 0 mg/dL; GLC [7]: 159.6 mg/dL; IP [7]: 8.4 mg/dL; K [7]: 4.4 meq/L; LDH [7]: 145.8 IU/L; Na [7]: 140.4 meq/L; PL [7]: 167.4 mg/dL; RALB [7]: 2.2 g/dL; TBIL [7]: 0.004 mg/dL; TC [7]: 81.2 mg/dL; TG [7]: 239.2 mg/dL; TP [7]: 4.8 g/dL; gamma-GTP [7]: 2.6 IU/L; ALP [8]: 493.2 IU/L; ALT [8]: 30 IU/L; AST [8]: 64 IU/L; BUN [8]: 18 mg/dL; CRE [8]: 0.2 mg/dL; Ca [8]: 10.4 mg/dL; DBIL [8]: 0 mg/dL; GLC [8]: 164.2 mg/dL; IP [8]: 7 mg/dL; K [8]: 4.2 meq/L; LDH [8]: 158.8 IU/L; Na [8]: 141.2 meq/L; PL [8]: 191.5 mg/dL; RALB [8]: 2.4 g/dL; TBIL [8]: 0 mg/dL; TC [8]: 95 mg/dL; TG [8]: 283.8 mg/dL; TP [8]: 5.1 g/dL; gamma-GTP [8]: 4.2 IU/L
